Tested on: TGFβ1-induced expression of α-SMA protein in human HSC
Assay: α-SMA ELISA in TGFβ1-activated human primary hepatic stellate cells (single agents and NTZ/statin or TZ/statin combination matrix, EOB/EOHSA)
Format: cell-based
Settings: hHSC, TGFβ1 1 ng/mL, 48 h; for IC50: Homo sapiens, 1 h preincubation, ELISA, read-out: IC50, reduction of α-SMA level in TGFβ-induced HSC; for antifibrotic activity as single agent (α-SMA, dose-response): result in words
Description: After 48 hours of incubation, the expression of α-SMA was measured by ELISA. […] Data are presented as mean (triplicates)±standard deviation (SD). Statistical analyses were performed by one-way ANOVA followed by Bonferroni post-hoc tests, using Sigma Plot 11.0 software. […] After 48 hours of incubation, the expression of α-SMA was measured by ELISA. […] Data are presented as mean (triplicates)±standard deviation (SD). Statistical analyses were performed by one-way ANOVA followed by Bonferroni post-hoc tests, using Sigma Plot 11.0 software. […] Combinations were tested in a dose-response matrix format and analyzed according to the excess over Bliss (EOB) additivism model. Dilution series of NTZ (column) and pitavastatin (row) were prepared, including their respective DMSO controls. […] Data are presented as mean of quadruplicates. (B) EOB scores were calculated as described in Materials and Methods. Any compound pair with positive EOB values was considered synergistic (colored from light grey to black). […] Data are presented as mean (quadruplicates)±standard deviation (SD). Statistical analyses between single agent vs product combination were performed by student t-test or Mann-Whitney Rank Sum Test using Sigma Plot 11.0 software. [*: p<0.05; **: p<0.01; ***: p<0.001]. […] Cell-culture flasks were coated with poly-L lysine (Sigma cat #P4707) for a better adherence. The checkerboard matrix was adopted. NTZ or TZ and statin stocks were serially diluted in DMSO in a 5-points series in a row (statin) and a column (NTZ or TZ) of a 96-well plate. […] Then, 2-fold and 4-fold higher and lower concentrations were selected. […] The human primary hepatic stellate cells (hHSC) (Innoprot) were cultured under standard conditions, as described above. […] Plates were then incubated for 30 min on ice using a plate shaker, before storage at -20° C. The level of α-SMA was measured using a Sandwich ELISA. Briefly, the wells of an ELISA plate were first coated with the capture antibody (mouse monoclonal anti-ACTA2, Abnova) at 4° C. overnight. […] The cell lysates were transferred into the wells for binding to the capture antibody for a period of 2 h at room temperature. After the washing procedure, the detection antibody (biotinylated mouse monoclonal anti-ACTA2, Abnova) was added for 2 hours at room temperature followed by 3 washes. For the detection, an HRP-conjugated streptavidin (R&D Systems cat #DY998) was first applied for 30 min at room temperature. […] Upon oxidation, TMB forms a water-soluble blue reaction product that becomes yellow with addition of sulfuric acid (solution stop), enabling accurate measurement of the intensity at 450 nm using a spectrophotometer. The developed color is directly proportional to the amount of α-SMA present in the lysate. […] Expected Bliss additivism score (E) was firstly determined by the equation: E=(A+B)-(A×B) where A and B are the percentage inhibitions converted into fractions within a range of 0 to 1 of NTZ (A) and a given statin (B) at a given dose. […] For each product combination (NTZ+statin), an additional total Bliss score was calculated by summation of all EOB. […] The significance of the observed differences between NTZ/statin or TZ/statin and single agents were estimated by a student t-test or Mann-Whitney Rank Sum Test using Sigma Plot 11.0 software [*: p<0.05; **: p<0.01; ***: p<0.001].

Row | SMILES | IC50 | antifibrotic activity as single agent (α-SMA, dose-response)
1 | CC(C)c1c(C(=O)Nc2ccccc2)c(-c2ccccc2)c(-c2ccc(F)cc2)n1CC[C@@H](O)C[C@@H](O)CC(=O)O [atorvastatin] | 1000 to 3000 nM | 
2 | CC(C)n1c(/C=C/C(O)CC(O)CC(=O)O)c(-c2ccc(F)cc2)c2ccccc21 (stereo not drawn) [fluvastatin] | < 1000 nM | 
3 | CC[C@H](C)C(=O)O[C@H]1C[C@H](O)C=C2C=C[C@H](C)[C@H](CC[C@@H](O)C[C@@H](O)CC(=O)O)[C@H]21 [pravastatin] |  | inactive
4 | CC(C)c1nc(N(C)S(C)(=O)=O)nc(-c2ccc(F)cc2)c1/C=C/[C@@H](O)C[C@@H](O)CC(=O)O [rosuvastatin] |  | significant antifibrotic activity but only at the highest doses

Further lines, with some results ahead:

Row | IC50 | SMILES | antifibrotic activity as single agent (α-SMA, dose-response)
5 | 1000 to 3000 nM | CC[C@H](C)C(=O)O[C@H]1C[C@@H](C)C=C2C=C[C@H](C)[C@H](CC[C@@H]3C[C@@H](O)CC(=O)O3)[C@H]21 [lovastatin] | 
6 | < 1000 nM | O=C(O)C[C@H](O)C[C@H](O)/C=C/c1c(C2CC2)nc2ccccc2c1-c1ccc(F)cc1 [pitavastatin] | 
